Converted amounts (≈) assume the structure as drawn.

The values below come from US8993574B2, “Pyrrole antifungal agents” (F2G Ltd, priority 2008, dated 2015).

Assay type in all cases: cell-based
In assay [1] the test system is Aspergillus terreus AT49. The assay can be described thus: MIC, RPMI medium. The following applies: Aspergillus terreus, AT49, MIC banded into grades, read-out: MIC grade, A. terreus 49. An outline of the steps:
(§1)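 RPMI (2% glucose, 0.135 M MOPS, pH 7.0) microdilution; drug 50-0.05 mg/L doubling series; inoculum 1−2×10^4 cfu/mL; 24-48 h, 35° C; OD485; MIC = lowest conc. with >80% inhibition vs drug-free control.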

Assay [2] deals with Aspergillus niger. The assay can be described thus: MIC, RPMI medium. The following applies: Aspergillus niger, MIC banded into grades, read-out: MIC grade, A. niger. An outline of the steps: as §1
Assay [3] concerns Aspergillus fumigatus AF210. The assay can be described thus: MIC, RPMI medium. The following applies: Aspergillus fumigatus, AF210, MIC banded into grades, read-out: MIC grade, A. fumigatus 210. An outline of the steps:
as §1

Assay [4] deals with Aspergillus terreus AT4. The assay can be described thus: MIC, RPMI medium. The following applies: Aspergillus terreus, AT4, MIC banded into grades, read-out: MIC grade, A. terreus. A digest of the protocol: as §1
Assay [5] concerns Aspergillus fumigatus AF293. The assay can be described thus: MIC, RPMI medium. The following applies: Aspergillus fumigatus, AF293, MIC banded into grades, read-out: MIC grade, A. fumigatus. An outline of the steps: as §1
In assay [6] the test system is Aspergillus flavus. The assay can be described thus: MIC, RPMI medium. The following applies: Aspergillus flavus, MIC banded into grades, read-out: MIC grade, A. flavus. A digest of the protocol: as §1
Assay [7] concerns Aspergillus terreus AT49. The assay is described as follows: MIC, YAG medium. The following applies: Aspergillus terreus, 24 h at 35° C, MIC banded into grades, read-out: MIC grade, A. terreus 49. An outline of the steps:
(§2)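 MICs (mg/L) derive from the lowest compound concentration suppressing spore outgrowth by >70% against a drug-free well, by OD 485 nm. Conditions: YAG medium, 1−2×10^4 cfu/mL, 24 h, 35° C, two-fold dilutions from 50 mg/L.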

For assay [8], the system named is Aspergillus niger. The assay can be described thus: MIC, YAG medium. The following applies: Aspergillus niger, 24 h at 35° C, MIC banded into grades, read-out: MIC grade, A. niger. A digest of the protocol: as §2
The test system of assay [9] is Aspergillus fumigatus AF210. The assay is described as follows: MIC, YAG medium. The following applies: Aspergillus fumigatus, 24 h at 35° C, MIC banded into grades, read-out: MIC grade, A. fumigatus 210. An outline of the steps: as §2
Assay [10] concerns Aspergillus terreus AT4. The assay can be described thus: MIC, YAG medium. The following applies: Aspergillus terreus, 24 h at 35° C, MIC banded into grades, read-out: MIC grade, A. terreus. An outline of the steps:
as §2

Assay [11] has as its system Aspergillus fumigatus AF293. The assay is described as follows: MIC, YAG medium. The following applies: Aspergillus fumigatus, 24 h at 35° C, MIC banded into grades, read-out: MIC grade, A. fumigatus. A digest of the protocol:
as §2

Assay [12] relates to Aspergillus flavus. The assay can be described thus: MIC, YAG medium. The following applies: Aspergillus flavus, 24 h, 24 h at 35° C, MIC banded into grades, read-out: MIC grade, A. flavus. A digest of the protocol: as §2

Regarding `CSCn1c(C)cc(-c2ccccc2)c1C(=O)C(=O)Nc1ccc(N2CCN(c3cc(C)cc(C)n3)CC2)cc1` [Example 137, N-{4-[4-(4,6-Dimethyl-pyridin-2-yl)-piperazin-1-yl]-phenyl}-2-(5-methyl-1-methylsulfanylmethyl-3-phenyl-1H-pyrrol-2-yl)-2-oxo-acetamide], the MIC in [1] is 1 to 10 µg/mL (≈ 1.81 to 18.1 µM); in [2], 1 to 10 µg/mL (≈ 1.81 to 18.1 µM); in [3], 1 to 10 µg/mL (≈ 1.81 to 18.1 µM); in [4] it was 1 to 10 µg/mL (≈ 1.81 to 18.1 µM); in assay [5], less than 1 µg/mL; in assay [6], 1 to 10 µg/mL (≈ 1.81 to 18.1 µM). Moreover, the minimum inhibitory concentration (MIC) in assay [7], in assay [8], in assay [9], in [10], in [11] and in [12] was less than 1 µg/mL throughout.

`Cc1cc(-c2ccccc2)c(C(=O)C(=O)Nc2ccc(N3CCN(c4ccccn4)CC3)cc2)n1C` [Example 38, 2-(1,5-Dimethyl-3-phenyl-1H-pyrrol-2-yl)-2-oxo-N-[4-(4-pyridin-2-yl-piperazin-1-yl)-phenyl]-acetamide]: the MIC in assay [1], in assay [2], in [3], in assay [4], in assay [5] and in assay [6] was less than 1 µg/mL throughout. Besides, the MIC in assay [7], in assay [8], in assay [9], in assay [10], in [11] and in [12] was less than 1 µg/mL each time.

With `Cc1cc(-c2ccccc2)c(C(=O)C(=O)Nc2ccc(N3CCN(C(C)C(C)C)CC3)cc2)n1C` (stereo not drawn) [Example 150, 2-(1,5-Dimethyl-3-phenyl-1H-pyrrol-2-yl)-N-{4-[4-(1,2-dimethyl-propyl)-piperazin-1-yl]-phenyl}-2-oxo-acetamide], the MIC in assay [1], in assay [2], in [3], in [4], in assay [5] and in [6] was less than 1 µg/mL in each case. The MIC in assay [7], in [8], in assay [9], in assay [10], in [11] and in assay [12] was less than 1 µg/mL throughout.

As for `COCCn1c(C)cc(-c2ccccc2)c1C(=O)C(=O)Nc1cccc2ccncc12` [Example 42, N-Isoquinolin-8-yl-2-[1-(2-methoxy-ethyl)-5-methyl-3-phenyl-1H-pyrrol-2-yl]-2-oxo-acetamide], the MIC is greater than 10 µg/mL in assay [1]; greater than 10 µg/mL in assay [2]; greater than 10 µg/mL in [3]; greater than 10 µg/mL in [4]; 1 to 10 µg/mL (≈ 2.42 to 24.2 µM) in assay [5]; greater than 10 µg/mL in assay [6]. Besides, the MIC in assay [7] was greater than 10 µg/mL; in assay [8], greater than 10 µg/mL; in assay [9], 1 to 10 µg/mL (≈ 2.42 to 24.2 µM); in [10], greater than 10 µg/mL; in assay [11], 1 to 10 µg/mL (≈ 2.42 to 24.2 µM); in [12] it was greater than 10 µg/mL.

What is called MIC is the least concentration at which growth counts as inhibited.
